Measured values taken from publication PMC4367813 (Current medicinal chemistry, 2012).
Read-outs that look alike come from different tables or passages of the source. Residues, ends and D or L forms follow the SMILES beside them. *: point of attachment. Cbz = O=C(OCc1ccccc1)*

Experiments:
[1] = tested on: PRCP; details: read-out: PRCP IC50, cited from earlier work
[2] = molecular target: PRCP-dependent prekallikrein (PK) activation on HPAEC; experiment: PRCP-dependent PK activation on HPAEC; format: cell-based, human; details: 20 nM HK, 20 nM PK; NE = no effect
[3] = molecular target: T1, recombinant PRCP (rPRCP) (Homo sapiens, UniProt P42785); experiment: rPRCP activity, cleavage of chromogenic substrate APpNA; format: biochemical; details: 1 mM APpNA, 60 min; NE = no effect
T1 sequence (P42785 46-496): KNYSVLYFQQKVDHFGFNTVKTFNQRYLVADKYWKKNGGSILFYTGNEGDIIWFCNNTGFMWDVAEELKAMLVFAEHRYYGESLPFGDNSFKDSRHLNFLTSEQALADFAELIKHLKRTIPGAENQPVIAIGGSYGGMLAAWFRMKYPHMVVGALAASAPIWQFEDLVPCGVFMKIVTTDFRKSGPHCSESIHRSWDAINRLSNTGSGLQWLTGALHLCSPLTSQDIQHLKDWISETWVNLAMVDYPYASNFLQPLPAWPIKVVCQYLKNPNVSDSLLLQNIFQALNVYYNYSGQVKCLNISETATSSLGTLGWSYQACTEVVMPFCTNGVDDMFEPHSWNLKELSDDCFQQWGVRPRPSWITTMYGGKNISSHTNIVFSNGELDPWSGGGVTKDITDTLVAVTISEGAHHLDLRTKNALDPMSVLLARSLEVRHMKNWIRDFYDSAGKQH

[4] = molecular target: T2, carboxypeptidase M (CPM) (Homo sapiens, UniProt P14384); experiment: Specificity: carboxypeptidase M inhibition; format: biochemical; details: Table 5, NE = no effect
T2 sequence (P14384 18-443): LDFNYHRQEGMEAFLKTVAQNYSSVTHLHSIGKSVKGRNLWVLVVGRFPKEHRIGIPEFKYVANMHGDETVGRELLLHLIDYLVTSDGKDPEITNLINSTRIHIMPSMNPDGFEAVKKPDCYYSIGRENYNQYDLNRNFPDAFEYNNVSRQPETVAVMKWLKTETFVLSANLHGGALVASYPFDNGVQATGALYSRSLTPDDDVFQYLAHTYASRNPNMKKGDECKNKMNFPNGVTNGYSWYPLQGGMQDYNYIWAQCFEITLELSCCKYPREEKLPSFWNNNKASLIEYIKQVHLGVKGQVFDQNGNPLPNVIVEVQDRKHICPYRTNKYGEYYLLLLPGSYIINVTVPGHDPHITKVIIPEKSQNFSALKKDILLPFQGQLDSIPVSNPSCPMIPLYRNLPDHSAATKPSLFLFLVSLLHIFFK

[5] = tested on: food intake in mice; details: fasted mice
[6] = molecular target: T3, carboxypeptidase N (hCPN, partially purified from plasma) (Homo sapiens, UniProt P15169); experiment: Specificity: carboxypeptidase N inhibition; format: biochemical; details: Table 5, NE = no effect
T3 sequence (P15169 21-458): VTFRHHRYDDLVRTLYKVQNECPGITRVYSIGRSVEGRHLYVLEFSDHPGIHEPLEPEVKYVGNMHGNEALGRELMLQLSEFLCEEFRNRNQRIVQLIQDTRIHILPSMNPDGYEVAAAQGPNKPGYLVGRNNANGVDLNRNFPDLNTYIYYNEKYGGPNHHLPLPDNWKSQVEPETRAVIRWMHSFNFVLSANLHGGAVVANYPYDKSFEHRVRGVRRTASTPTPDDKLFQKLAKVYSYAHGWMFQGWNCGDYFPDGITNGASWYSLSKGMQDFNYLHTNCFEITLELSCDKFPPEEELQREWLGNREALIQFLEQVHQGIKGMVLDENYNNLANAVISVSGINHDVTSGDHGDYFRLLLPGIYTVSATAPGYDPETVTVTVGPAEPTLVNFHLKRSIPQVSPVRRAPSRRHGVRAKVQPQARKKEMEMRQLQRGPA
T3 sequence (P22792 22-545 partner): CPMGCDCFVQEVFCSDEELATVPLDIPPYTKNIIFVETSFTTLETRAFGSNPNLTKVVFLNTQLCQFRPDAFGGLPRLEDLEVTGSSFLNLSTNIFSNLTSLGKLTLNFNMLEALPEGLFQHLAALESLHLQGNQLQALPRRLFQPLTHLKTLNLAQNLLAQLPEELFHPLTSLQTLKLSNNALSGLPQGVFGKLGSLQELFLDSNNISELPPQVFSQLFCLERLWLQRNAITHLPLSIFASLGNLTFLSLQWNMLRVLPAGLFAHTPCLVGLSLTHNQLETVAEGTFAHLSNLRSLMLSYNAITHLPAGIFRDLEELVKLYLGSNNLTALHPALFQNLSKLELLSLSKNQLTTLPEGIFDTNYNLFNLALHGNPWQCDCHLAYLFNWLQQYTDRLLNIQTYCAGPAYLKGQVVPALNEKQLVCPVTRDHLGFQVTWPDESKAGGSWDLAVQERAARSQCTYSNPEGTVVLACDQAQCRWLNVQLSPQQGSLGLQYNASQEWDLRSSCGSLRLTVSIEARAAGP

[7] = Metabolic panel
[8] = molecular target: T4, carboxypeptidase A (CPA) (Bos taurus, UniProt P00730); experiment: Specificity: carboxypeptidase A inhibition; format: biochemical
T4 sequence (P00730 111-419): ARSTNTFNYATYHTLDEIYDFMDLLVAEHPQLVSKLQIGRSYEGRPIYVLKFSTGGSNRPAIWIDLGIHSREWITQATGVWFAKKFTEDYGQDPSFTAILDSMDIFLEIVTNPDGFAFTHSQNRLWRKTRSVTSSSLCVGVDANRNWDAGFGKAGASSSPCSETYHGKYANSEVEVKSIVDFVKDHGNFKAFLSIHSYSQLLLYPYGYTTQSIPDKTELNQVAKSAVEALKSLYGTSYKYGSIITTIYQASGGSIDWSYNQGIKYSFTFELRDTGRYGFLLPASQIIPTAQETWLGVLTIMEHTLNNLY

[9] = tested on: PGI2 (6-keto prostaglandin F1α) release from HPAEC; experiment: PRCP-induced 6-keto prostaglandin F1α release from HPAEC; format: cell-based, human; details: HPAEC with HK/PK complexes, 100 µM
[10] = molecular target: T5, carboxypeptidase B (CPB) (Sus scrofa, UniProt P09955); experiment: Specificity: carboxypeptidase B inhibition; format: biochemical; details: Table 5, NE = no effect
T5 sequence (P09955 111-416): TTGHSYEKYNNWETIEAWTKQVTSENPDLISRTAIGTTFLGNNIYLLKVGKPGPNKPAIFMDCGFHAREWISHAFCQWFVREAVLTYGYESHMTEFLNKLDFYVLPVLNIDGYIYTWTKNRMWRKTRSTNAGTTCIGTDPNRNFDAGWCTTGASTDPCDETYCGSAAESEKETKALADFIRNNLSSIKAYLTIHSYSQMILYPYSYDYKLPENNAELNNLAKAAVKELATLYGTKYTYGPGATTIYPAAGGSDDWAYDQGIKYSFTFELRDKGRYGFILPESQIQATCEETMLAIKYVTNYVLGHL

[11] = tested on: NO formation on HPAEC; experiment: PRCP-induced nitric oxide formation on HPAEC; format: cell-based, human; details: HPAEC with HK/PK complexes, 100 µM
[12] = mice, Compound 3 (400 µM), within 8 hours of administration

With `O=C[C@@H]1CCCN1C(=O)[C@@H]1CCCN1C(=O)OCc1ccccc1` (Cbz-Pro-Pro-aldehyde) as the compound, how does the IC50 [1] read?
The IC50 was > 1 mM.

With `O=C[C@@H]1CCCN1C(=O)[C@@H]1CCCN1C(=O)OCc1ccccc1` [z-Pro-Prolinal, 1-[1-(benzyloxycarbonyl)-L-prolyl] prolinal] (Cbz-Pro-Pro-aldehyde) as the compound, how does the “PRCP-Dependent PK Activation on HPAEC Ki” value [2] read?
Its value is “little effect”.

What about the IC50 ([1]; listed as Z-Pro-Pro-OH) of the same compound?
The IC50 was > 2 mM.

What about the “rPRCP Ki” value [3] of the same compound?
Its value is “little effect”.

With `CCCCCCCCCCCCNC(=O)[C@@H]1CCCN1C(=O)[C@@H]1CCCN1` [Compound 3, (S)-N-dodecyl-1-((S)-pyrrolidine-2-carbonyl) pyrrolidine-2-carboxamide] as the compound, how does the “Ki CPM” value [4] read?
The value was “did not inhibit”.

And the Ki ([4]; read-out: Ki CPM)?
The Ki was > 1 mM.

What about the food intake ([5]; 1 mg/kg ip, 1-24 h) of the same compound?
The food intake was “lower food intake, although the reduction was not significant at 2, 4, 8, or 24 h”.

And the food intake ([5]; 10 mg/kg ip, all time intervals 1-24 h, P < 0.05 vs saline)?
The food intake was “Significant declines in food intake”.

And the “time at which attenuation of food intake started” value ([5]; ip)?
The value was ≤ 1 h.

What about the “Ki CPN” value [6] of the same compound?
The value was “did not inhibit”.

What about the Ki ([6]; read-out: Ki CPN) of the same compound?
The Ki was > 1 mM.

What about the ALB [7, 12] of the same compound?
The ALB was 3.9.

What about the ALP [7, 12] of the same compound?
Its ALP is 93.

And the ALT [7, 12]?
Its ALT is 33.

What about the AMY [7, 12] of the same compound?
The AMY was 1041.

What about the BUN [7, 12] of the same compound?
Its BUN is 19.

And the CRE [7, 12]?
The CRE was 0.3.

And the “Ca^2+” value [7, 12]?
Its value is 9.9.

What about the GLOB [7, 12] of the same compound?
The GLOB was 1.5.

What about the GLU [7, 12] of the same compound?
The GLU was 165.

And the “K+” value [7, 12]?
The value was 5.4.

And the “Na+” value [7, 12]?
Its value is 151.

What about the PHOS [7, 12] of the same compound?
The PHOS was 8.0.

And the TBIL [7, 12]?
Its TBIL is 0.4.

What about the TP [7, 12] of the same compound?
Its TP is 5.3.

And the “changes in electrolyte levels, or markers of kidney and liver function” value ([7]; mice, within 8 hours of administration)?
The value was “did not cause significant changes”.

What about the “decrease in blood glucose levels” value ([7]; treated mice, n=3, P = 0.26) of the same compound?
Its value is 15%.

What about the “Ki CPA” value ([8]; Table 5, NE = no effect) of the same compound?
The value was “not inhibited”.

And the Ki ([8]; read-out: Ki CPA, Table 5, NE = no effect)?
The Ki was > 1 mM.

What about the “reduction of PGI2 production” value [9] of the same compound?
The value was 80%.

What about the “Ki CPB” value [10] of the same compound?
Its value is “not inhibited”.

And the Ki ([10]; read-out: Ki CPB)?
The Ki was > 1 mM.

And the “reduction of NO production” value [11]?
The value was 80%.

Which results are given for `c1cnc2c(c1)ccc1cccnc12` [1,10-Phenanthroline, 1,10-phenanthroline, reference compound]?
Ki ([4]; Ki CPM): 0.394 mM; Ki [8]: 0.486 mM
